Data taken from paper PMC7957565 (Molecules, 2021).

Tests used:
[1] = molecular target: T1, AChE (from electric eel) (Electrophorus electricus, UniProt O42275); test: biochemical; conditions: eeAChE; for inhibition at 100 µM: compound at 100 μM, read-out: AChE inhibition rate (%) in 100 μM; for IC50: mean ± spread
T1 construct: purchased Sigma-Aldrich

[2] = molecular target: butyrylcholinesterase (BuChE, from equine serum) (Equus caballus, UniProt P81908); test: biochemical; conditions: eqBuChE; mean ± spread
Chain of butyrylcholinesterase (BuChE, from equine serum) (P81908 whole entry): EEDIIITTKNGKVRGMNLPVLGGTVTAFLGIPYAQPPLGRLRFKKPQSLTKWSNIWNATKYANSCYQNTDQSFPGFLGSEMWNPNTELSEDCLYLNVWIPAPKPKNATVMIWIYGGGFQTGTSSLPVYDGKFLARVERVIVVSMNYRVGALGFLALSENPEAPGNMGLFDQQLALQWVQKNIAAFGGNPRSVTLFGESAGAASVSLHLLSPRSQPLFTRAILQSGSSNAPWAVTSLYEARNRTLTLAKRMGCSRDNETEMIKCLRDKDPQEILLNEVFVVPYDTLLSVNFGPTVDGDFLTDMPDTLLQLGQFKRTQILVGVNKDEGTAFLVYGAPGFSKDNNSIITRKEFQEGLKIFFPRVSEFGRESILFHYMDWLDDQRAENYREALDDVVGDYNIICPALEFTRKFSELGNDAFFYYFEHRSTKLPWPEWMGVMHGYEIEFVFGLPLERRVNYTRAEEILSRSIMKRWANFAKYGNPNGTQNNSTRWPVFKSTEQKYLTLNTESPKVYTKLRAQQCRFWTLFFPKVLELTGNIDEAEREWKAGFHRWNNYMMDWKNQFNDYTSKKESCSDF

T1 sequence (O42275 24-633): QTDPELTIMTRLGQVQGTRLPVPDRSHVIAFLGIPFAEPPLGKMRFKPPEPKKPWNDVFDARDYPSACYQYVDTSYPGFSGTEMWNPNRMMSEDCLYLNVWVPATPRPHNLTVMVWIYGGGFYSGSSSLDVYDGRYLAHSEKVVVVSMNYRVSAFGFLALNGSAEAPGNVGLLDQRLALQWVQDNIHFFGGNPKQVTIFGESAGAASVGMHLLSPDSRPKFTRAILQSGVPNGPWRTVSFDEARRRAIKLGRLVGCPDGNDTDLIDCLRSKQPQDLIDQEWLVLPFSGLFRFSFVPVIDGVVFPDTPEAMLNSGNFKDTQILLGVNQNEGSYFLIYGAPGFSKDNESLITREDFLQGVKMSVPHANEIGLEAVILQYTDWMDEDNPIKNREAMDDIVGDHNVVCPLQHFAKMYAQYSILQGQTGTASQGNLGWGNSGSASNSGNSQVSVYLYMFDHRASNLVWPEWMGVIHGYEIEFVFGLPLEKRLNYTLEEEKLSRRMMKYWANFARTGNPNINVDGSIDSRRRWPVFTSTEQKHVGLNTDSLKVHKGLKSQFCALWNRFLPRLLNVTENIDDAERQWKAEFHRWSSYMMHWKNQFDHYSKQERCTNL

SMILES	inhibition at 100 µM [1]	IC50 [2]	IC50 [1]
COc1ccc2[nH]c3c4c(c(C=O)cc3c2c1)OC(C)(C)C=C4 [Clau F, Claulansine F, reference compound]	28.2 ± 2.11%	64.3 ± 7.52 µM	
CC1(C)C=Cc2c(c(/C=C/C(=O)NC3CCN(Cc4ccccc4)CC3)cc3c2[nH]c2ccc(C(C)(C)C)cc23)O1 [Compound 6aa, (E)-N-(1-Benzylpiperidin-4-yl)-3-(8-(tert-butyl)-3,3-dimethyl-3,11-dihydropyrano[3,2-a]carbazol-5-yl)acrylamide]		22.9 ± 1.14 µM	51.9 ± 2.24 µM
CC1(C)C=Cc2c(c(/C=C/C(=O)NC3CCN(Cc4ccccc4F)CC3)cc3c2[nH]c2ccc(C(C)(C)C)cc23)O1 [Compound 6ab, (E)-3-(8-(tert-Butyl)-3,3-dimethyl-3,11-dihydropyrano[3,2-a]carbazol-5-yl)-N-(1-(2-fluorobenzyl)piperidin-4-yl)acrylamide]	36.16 ± 0.31%	35.9 ± 5.13 µM	
Cc1ccccc1CN1CCC(NC(=O)/C=C/c2cc3c([nH]c4ccc(C(C)(C)C)cc43)c3c2OC(C)(C)C=C3)CC1 [Compound 6ac, (E)-3-(8-(tert-Butyl)-3,3-dimethyl-3,11-dihydropyrano[3,2-a]carbazol-5-yl)-N-(1-(2-methylbenzyl)piperidin-4-yl)acrylamide]	50.9 ± 2.76%	34.3 ± 0.69 µM	
CC1(C)C=Cc2c(c(/C=C/C(=O)NC3CCN(Cc4ccccc4Cl)CC3)cc3c2[nH]c2ccc(C(C)(C)C)cc23)O1 [Compound 6ad, (E)-3-(8-(tert-Butyl)-3,3-dimethyl-3,11-dihydropyrano[3,2-a]carbazol-5-yl)-N-(1-(2-chlorobenzyl)piperidin-4-yl)acrylamide]	42.5 ± 6.12%	38.8 ± 2.48 µM	
COc1ccc2[nH]c3c4c(c(/C=C/C(=O)NC5CCN(Cc6ccccc6)CC5)cc3c2c1)OC(C)(C)C=C4 [Compound 6ae, (E)-N-(1-Benzylpiperidin-4-yl)-3-(8-methoxy-3,3-dimethyl-3,11-dihydropyrano[3,2-a]carbazol-5-yl)acrylamide]	20.4 ± 7.35%	69.1 ± 8.51 µM	
COc1ccc2[nH]c3c4c(c(/C=C/C(=O)NC5CCN(Cc6ccccc6F)CC5)cc3c2c1)OC(C)(C)C=C4 [Compound 6af, (E)-N-(1-(2-Fluorobenzyl)piperidin-4-yl)-3-(8-methoxy-3,3-dimethyl-3,11-dihydropyrano[3,2-a]carbazol-5-yl)acrylamide]	34.2 ± 10.7%	24.5 ± 1.94 µM	
COc1ccc2[nH]c3c4c(c(/C=C/C(=O)NC5CCN(Cc6ccccc6C)CC5)cc3c2c1)OC(C)(C)C=C4 [Compound 6ag, (E)-3-(8-Methoxy-3,3-dimethyl-3,11-dihydropyrano[3,2-a]carbazol-5-yl)-N-(1-(2-methylbenzyl)piperidin-4-yl)acrylamide]	36.8 ± 1.25%	26.4 ± 4.51 µM	
COc1ccc2[nH]c3c4c(c(/C=C/C(=O)NC5CCN(Cc6ccccc6Cl)CC5)cc3c2c1)OC(C)(C)C=C4 [Compound 6ah, (E)-N-(1-(2-Chlorobenzyl)piperidin-4-yl)-3-(8-methoxy-3,3-dimethyl-3,11-dihydropyrano[3,2-a]carbazol-5-yl)acrylamide]	40 ± 1.4%	18 ± 2.27 µM	
CC1(C)C=Cc2c(c(/C=C/C(=O)NCC3CCN(Cc4ccccc4)CC3)cc3c2[nH]c2ccc(C(C)(C)C)cc23)O1 [Compound 6ba, (E)-N-((1-Benzylpiperidin-4-yl)methyl)-3-(8-(tert-butyl)-3,3-dimethyl-3,11-dihydropyrano[3,2-a]carbazol-5-yl)acrylamide]		12.3 ± 0.66 µM	4.62 ± 0.28 µM
Cc1ccccc1CN1CCC(CNC(=O)/C=C/c2cc3c([nH]c4ccc(C(C)(C)C)cc43)c3c2OC(C)(C)C=C3)CC1 [Compound 6bc, (E)-3-(8-(tert-Butyl)-3,3-dimethyl-3,11-dihydropyrano[3,2-a]carbazol-5-yl)-N-((1-(2-methylbenzyl)piperidin-4-yl)methyl)acrylamide]		19 ± 0.94 µM	4.26 ± 0.22 µM
COc1ccc2[nH]c3c4c(c(/C=C/C(=O)NCC5CCN(Cc6ccccc6)CC5)cc3c2c1)OC(C)(C)C=C4 [Compound 6bg, (E)-N-((1-Benzylpiperidin-4-yl)methyl)-3-(8-methoxy-3,3-dimethyl-3,11-dihydropyrano[3,2-a]carbazol-5-yl)acrylamide]		74.9 ± 3.21 µM	27.7 ± 5.15 µM
COc1ccc2[nH]c3c4c(c(/C=C/C(=O)NCC5CCN(Cc6ccccc6F)CC5)cc3c2c1)OC(C)(C)C=C4 [Compound 6bh, (E)-N-((1-(2-Fluorobenzyl)piperidin-4-yl)methyl)-3-(8-methoxy-3,3-dimethyl-3,11-dihydropyrano[3,2-a]carbazol-5-yl)acrylamide]		31.5 ± 3.88 µM	23.6 ± 8.31 µM
COc1ccc2[nH]c3c4c(c(/C=C/C(=O)NCC5CCN(Cc6ccccc6C)CC5)cc3c2c1)OC(C)(C)C=C4 [Compound 6bi, (E)-3-(8-Methoxy-3,3-dimethyl-3,11-dihydropyrano[3,2-a]carbazol-5-yl)-N-((1-(2-methylbenzyl)piperidin-4-yl)methyl)acrylamide]		32.8 ± 0.5 µM	58.4 ± 1.79 µM
COc1ccc2[nH]c3c4c(c(/C=C/C(=O)NCC5CCN(Cc6ccccc6Cl)CC5)cc3c2c1)OC(C)(C)C=C4 [Compound 6bj, (E)-N-((1-(2-Chlorobenzyl)piperidin-4-yl)methyl)-3-(8-methoxy-3,3-dimethyl-3,11-dihydropyrano[3,2-a]carbazol-5-yl)acrylamide]		37.6 ± 0.56 µM	91.1 ± 4.41 µM
CC1(C)C=Cc2c(c(/C=C/C(=O)NCCC3CCN(Cc4ccccc4)CC3)cc3c2[nH]c2ccc(C(C)(C)C)cc23)O1 [Compound 6ca, (E)-N-(2-(1-Benzylpiperidin-4-yl)ethyl)-3-(8-(tert-butyl)-3,3-dimethyl-3,11-dihydropyrano[3,2-a]carbazol-5-yl)acrylamide]		23.4 ± 0.95 µM	9 ± 0.86 µM
CC1(C)C=Cc2c(c(/C=C/C(=O)NCCC3CCN(Cc4ccccc4F)CC3)cc3c2[nH]c2ccc(C(C)(C)C)cc23)O1 [Compound 6cb, (E)-3-(8-(tert-Butyl)-3,3-dimethyl-3,11-dihydropyrano[3,2-a]carbazol-5-yl)-N-(2-(1-(2-fluorobenzyl)piperidin-4-yl)ethyl)acrylamide]		19.1 ± 2.04 µM	10.7 ± 0.2 µM
Cc1ccccc1CN1CCC(CCNC(=O)/C=C/c2cc3c([nH]c4ccc(C(C)(C)C)cc43)c3c2OC(C)(C)C=C3)CC1 [Compound 6cc, (E)-3-(8-(tert-Butyl)-3,3-dimethyl-3,11-dihydropyrano[3,2-a]carbazol-5-yl)-N-(2-(1-(2-methylbenzyl)piperidin-4-yl)ethyl)acrylamide]		33.8 ± 0.51 µM	14.3 ± 0.36 µM
CC1(C)C=Cc2c(c(/C=C/C(=O)NCCC3CCN(Cc4ccccc4Cl)CC3)cc3c2[nH]c2ccc(C(C)(C)C)cc23)O1 [Compound 6cd, (E)-3-(8-(tert-Butyl)-3,3-dimethyl-3,11-dihydropyrano[3,2-a]carbazol-5-yl)-N-(2-(1-(2-chlorobenzyl)piperidin-4-yl)ethyl)acrylamide]		17.3 ± 4.82 µM	17 ± 1.51 µM
COc1ccc2[nH]c3c4c(c(/C=C/C(=O)NCCC5CCN(Cc6ccccc6)CC5)cc3c2c1)OC(C)(C)C=C4 [Compound 6ce, (E)-N-(2-(1-Benzylpiperidin-4-yl)ethyl)-3-(8-methoxy-3,3-dimethyl-3,11-dihydropyrano[3,2-a]carbazol-5-yl)acrylamide]		26.4 ± 1.4 µM	41.7 ± 1.22 µM
COc1ccc2[nH]c3c4c(c(/C=C/C(=O)NCCC5CCN(Cc6ccccc6F)CC5)cc3c2c1)OC(C)(C)C=C4 [Compound 6cf, (E)-N-(2-(1-(2-Fluorobenzyl)piperidin-4-yl)ethyl)-3-(8-methoxy-3,3-dimethyl-3,11-dihydropyrano[3,2-a]carbazol-5-yl)acrylamide]		18 ± 3.35 µM	54.8 ± 7.96 µM
COc1ccc2[nH]c3c4c(c(/C=C/C(=O)NCCC5CCN(Cc6ccccc6C)CC5)cc3c2c1)OC(C)(C)C=C4 [Compound 6cg, (E)-3-(8-Methoxy-3,3-dimethyl-3,11-dihydropyrano[3,2-a]carbazol-5-yl)-N-(2-(1-(2-methylbenzyl)piperidin-4-yl)ethyl)acrylamide]		26.7 ± 1.76 µM	73 ± 1.93 µM
COc1ccc2[nH]c3c4c(c(/C=C/C(=O)NCCC5CCN(Cc6ccccc6Cl)CC5)cc3c2c1)OC(C)(C)C=C4 [Compound 6ch, (E)-N-(2-(1-(2-Chlorobenzyl)piperidin-4-yl)ethyl)-3-(8-methoxy-3,3-dimethyl-3,11-dihydropyrano[3,2-a]carbazol-5-yl)acrylamide]		24.2 ± 4.78 µM	24.6 ± 2.1 µM
